Source: publication PMC7710018, “Restoration of motor learning in a mouse model of Rett syndrome following long-term treatment with a novel small-molecule activator of TrkB” (Disease Models & Mechanisms, 2020)
Like-named read-outs stand apart in the source and are kept apart here.

Key:
[1] = molecular target: T1, GAL2 (h) (Homo sapiens, UniProt O43603); test: Cerep ExpresSProfile radioligand binding; details: 10 micromolar; agonist radioligand; read-out: % Inhibition of Control Specific Binding 2nd
T1 construct: purchased Cerep (ExpresSProfile)
T1 sequence (O43603 whole entry): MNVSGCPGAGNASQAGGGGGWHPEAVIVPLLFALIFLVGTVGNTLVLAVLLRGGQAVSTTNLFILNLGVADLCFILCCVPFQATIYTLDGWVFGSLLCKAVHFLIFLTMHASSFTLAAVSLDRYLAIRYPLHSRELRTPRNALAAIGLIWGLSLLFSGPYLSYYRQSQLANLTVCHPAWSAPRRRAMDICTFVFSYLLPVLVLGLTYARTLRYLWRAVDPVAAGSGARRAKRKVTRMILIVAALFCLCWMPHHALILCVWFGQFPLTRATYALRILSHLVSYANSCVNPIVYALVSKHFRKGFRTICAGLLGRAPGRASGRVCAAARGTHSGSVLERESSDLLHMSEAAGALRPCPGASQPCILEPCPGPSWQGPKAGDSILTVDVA
Description: (§1) To evaluate the relative binding specificity of LM22A-4 ([Massa et al., 2010]) and PTX-BD4-3, binding to a broad range of 55 pharmacologically relevant receptors, including numerous neurotransmitter and G-protein coupled receptors was assessed using standard radioligand competition binding assays (ExpressSProfile) performed by Cerep, Inc. (Seattle, WA, USA). In addition, ADME-Tox analysis was performed by Cerep, Inc. All experimental conditions are described on the Cerep website (www.cerep.fr).
(§2) Ligand % Inhibition of Control Specific […]
(§3) 48 Ca2+ channel (L, verapamil site) 0 ‐1.3 ‐0.7
(§4) (phenylalkylamine) (antagonist radioligand) […]
(§5) 51 Na+ channel (site 2) (antagonist radioligand) 0.6 11.7 6.1
(§6) 52 Cl‐ channel (GABA‐gated) (antagonist 2.7 ‐5.3 ‐1.3 […]
(§7) Table S1. In vitro binding assays. An ExpresSProfile screen of PTX-BD4-3 binding to a panel of pharmacologically relevant receptors was conducted by Cerep, Inc.
(§8) (Eurofins Panlabs, MO). The results are expressed as percent inhibition of control specific binding obtained in the presence of 10 micromolar PTX-BD4-3. In this assay, values below 50% indicate no specific binding of PTX-BD4-3. The assay was negative for PTX-BD4-3 binding to all of the 55 receptors in the screen.
(§9) (also on this page, place not known: 2B 5‐HT 3 5‐HT 5a 5‐HT 6 5‐HT 7 (agonis t VPAC 1 V 1 Ca 2+ K V SK Ca Na + Cl ‐ 5‐HT Disease Models & Mechanisms: doi:10.1242/dmm.044685: Supplementary information Disease Models & Mechanisms • Supplementary information)

[2] = molecular target: T2, 5-HT2A (h) (Homo sapiens, UniProt P28223); test: Cerep ExpresSProfile radioligand binding; details: 10 micromolar, antagonist radioligand
T2 construct: purchased Cerep (ExpresSProfile)
T2 sequence (P28223 whole entry): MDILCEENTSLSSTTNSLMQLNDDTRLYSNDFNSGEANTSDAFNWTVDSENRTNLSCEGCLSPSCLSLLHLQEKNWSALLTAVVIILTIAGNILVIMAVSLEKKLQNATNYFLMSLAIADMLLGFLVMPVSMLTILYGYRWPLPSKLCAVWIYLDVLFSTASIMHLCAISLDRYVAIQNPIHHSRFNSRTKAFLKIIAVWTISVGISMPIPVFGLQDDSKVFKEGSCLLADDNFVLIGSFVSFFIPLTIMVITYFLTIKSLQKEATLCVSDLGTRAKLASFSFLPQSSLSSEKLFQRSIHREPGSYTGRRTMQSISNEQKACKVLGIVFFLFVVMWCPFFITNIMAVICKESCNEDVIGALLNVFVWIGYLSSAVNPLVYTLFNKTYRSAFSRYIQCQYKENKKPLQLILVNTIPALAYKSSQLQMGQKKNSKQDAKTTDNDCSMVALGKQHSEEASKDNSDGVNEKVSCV
Description: as §1, §2, §3, §4, §5, §6, §7, §8, §9

[3] = molecular target: T3, EP4 (h) (Homo sapiens, UniProt P35408); test: Cerep ExpresSProfile radioligand binding; details: 10 micromolar, agonist radioligand
T3 construct: purchased Cerep (ExpresSProfile)
T3 sequence (P35408 whole entry): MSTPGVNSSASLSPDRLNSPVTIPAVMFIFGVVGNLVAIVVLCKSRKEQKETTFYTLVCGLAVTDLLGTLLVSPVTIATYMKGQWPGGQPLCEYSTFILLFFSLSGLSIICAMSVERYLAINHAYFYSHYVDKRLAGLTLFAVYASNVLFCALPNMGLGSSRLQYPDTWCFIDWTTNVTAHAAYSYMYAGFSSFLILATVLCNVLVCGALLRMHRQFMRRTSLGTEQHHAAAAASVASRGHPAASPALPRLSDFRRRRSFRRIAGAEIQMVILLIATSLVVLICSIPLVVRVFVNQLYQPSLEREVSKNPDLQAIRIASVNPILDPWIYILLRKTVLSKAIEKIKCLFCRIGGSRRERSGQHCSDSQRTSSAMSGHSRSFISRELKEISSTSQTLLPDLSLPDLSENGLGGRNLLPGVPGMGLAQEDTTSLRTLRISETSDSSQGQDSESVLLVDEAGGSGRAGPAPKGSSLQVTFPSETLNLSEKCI
Description: as §1, §2, §3, §4, §5, §6, §7, §8, §9

[4] = tested on: GABA (non-selective); test: Cerep ExpresSProfile radioligand binding; details: 10 micromolar; agonist radioligand
Description: as §1, §2, §3, §4, §5, §6, §7, §8, §9

[5] = tested on: BZD (central); test: Cerep ExpresSProfile radioligand binding; details: 10 micromolar; agonist radioligand
Description: as §1, §2, §3, §4, §5, §6, §7, §8, §9

[6] = molecular target: T4, D1 (h) (Homo sapiens, UniProt P21728); test: Cerep ExpresSProfile radioligand binding; details: 10 micromolar, antagonist radioligand
T4 construct: purchased Cerep (ExpresSProfile)
T4 sequence (P21728 whole entry): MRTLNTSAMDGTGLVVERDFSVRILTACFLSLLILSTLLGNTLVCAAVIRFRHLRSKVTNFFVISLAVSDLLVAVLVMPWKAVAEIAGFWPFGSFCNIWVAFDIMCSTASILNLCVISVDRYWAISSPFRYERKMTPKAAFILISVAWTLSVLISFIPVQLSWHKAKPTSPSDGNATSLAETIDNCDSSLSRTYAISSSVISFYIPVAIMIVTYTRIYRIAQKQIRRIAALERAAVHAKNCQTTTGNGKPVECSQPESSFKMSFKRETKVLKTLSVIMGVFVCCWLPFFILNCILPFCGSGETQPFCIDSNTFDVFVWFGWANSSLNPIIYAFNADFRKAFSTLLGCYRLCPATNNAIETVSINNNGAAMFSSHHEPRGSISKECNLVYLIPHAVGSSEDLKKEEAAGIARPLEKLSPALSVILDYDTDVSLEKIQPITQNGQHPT
Description: as §1, §2, §3, §4, §5, §6, §7, §8, §9

[7] = molecular target: T5, B2 (h) (Homo sapiens, UniProt P30411); test: Cerep ExpresSProfile radioligand binding; details: 10 micromolar, agonist radioligand
T5 construct: purchased Cerep (ExpresSProfile)
T5 sequence (P30411 1-391): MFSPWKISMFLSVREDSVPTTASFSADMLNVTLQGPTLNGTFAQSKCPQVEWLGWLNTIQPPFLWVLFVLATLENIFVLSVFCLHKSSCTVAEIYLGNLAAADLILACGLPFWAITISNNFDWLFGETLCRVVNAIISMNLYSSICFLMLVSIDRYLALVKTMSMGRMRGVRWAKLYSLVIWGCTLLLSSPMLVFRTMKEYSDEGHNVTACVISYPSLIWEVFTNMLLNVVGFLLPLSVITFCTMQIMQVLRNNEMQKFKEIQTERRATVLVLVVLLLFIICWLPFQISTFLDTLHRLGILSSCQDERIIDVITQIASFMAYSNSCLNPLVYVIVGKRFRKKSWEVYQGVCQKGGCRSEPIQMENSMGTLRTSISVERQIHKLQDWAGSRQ
Description: as §1, §2, §3, §4, §5, §6, §7, §8, §9

[8] = molecular target: T6, D2S (h) (Homo sapiens, UniProt P14416); test: Cerep ExpresSProfile radioligand binding; details: 10 micromolar; antagonist radioligand; read-out: % Inhibition of Control Specific Binding 2nd
T6 construct: purchased Cerep (ExpresSProfile)
T6 sequence (P14416 1-414 isoform P14416-2): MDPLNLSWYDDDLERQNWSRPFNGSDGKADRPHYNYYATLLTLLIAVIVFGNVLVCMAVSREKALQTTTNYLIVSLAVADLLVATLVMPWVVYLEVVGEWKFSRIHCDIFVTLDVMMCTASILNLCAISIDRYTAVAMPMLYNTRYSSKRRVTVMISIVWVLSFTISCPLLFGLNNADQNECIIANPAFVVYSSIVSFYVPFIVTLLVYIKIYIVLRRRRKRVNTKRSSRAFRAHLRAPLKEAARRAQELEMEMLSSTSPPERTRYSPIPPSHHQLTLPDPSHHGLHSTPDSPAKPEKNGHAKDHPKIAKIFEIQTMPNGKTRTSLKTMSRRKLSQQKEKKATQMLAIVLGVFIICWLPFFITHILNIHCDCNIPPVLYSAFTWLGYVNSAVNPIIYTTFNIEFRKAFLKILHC
Description: as §1, §2, §3, §4, §5, §6, §7, §8, §9

[9] = molecular target: T7, H1 (h) (Homo sapiens, UniProt P35367); test: Cerep ExpresSProfile radioligand binding; details: 10 micromolar, antagonist radioligand
T7 construct: purchased Cerep (ExpresSProfile)
T7 sequence (P35367 whole entry): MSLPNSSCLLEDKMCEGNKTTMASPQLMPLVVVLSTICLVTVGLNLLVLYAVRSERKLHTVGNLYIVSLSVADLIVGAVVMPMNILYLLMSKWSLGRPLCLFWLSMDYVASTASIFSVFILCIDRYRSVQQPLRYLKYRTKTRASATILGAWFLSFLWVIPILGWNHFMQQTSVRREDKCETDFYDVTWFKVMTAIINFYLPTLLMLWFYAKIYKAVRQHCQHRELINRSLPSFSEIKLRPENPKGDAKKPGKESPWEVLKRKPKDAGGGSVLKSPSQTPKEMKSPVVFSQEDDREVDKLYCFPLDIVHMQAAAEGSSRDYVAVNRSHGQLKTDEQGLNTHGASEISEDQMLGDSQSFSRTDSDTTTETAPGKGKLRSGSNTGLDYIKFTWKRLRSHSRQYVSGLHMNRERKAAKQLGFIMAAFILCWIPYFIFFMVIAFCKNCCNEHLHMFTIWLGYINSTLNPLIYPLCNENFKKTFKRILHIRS
Description: as §1, §2, §3, §4, §5, §6, §7, §8, §9

[10] = molecular target: T8, A2A (h) (Homo sapiens, UniProt P29274); test: Cerep ExpresSProfile radioligand binding; details: 10 micromolar, agonist radioligand
T8 construct: purchased Cerep (ExpresSProfile)
T8 sequence (P29274 whole entry): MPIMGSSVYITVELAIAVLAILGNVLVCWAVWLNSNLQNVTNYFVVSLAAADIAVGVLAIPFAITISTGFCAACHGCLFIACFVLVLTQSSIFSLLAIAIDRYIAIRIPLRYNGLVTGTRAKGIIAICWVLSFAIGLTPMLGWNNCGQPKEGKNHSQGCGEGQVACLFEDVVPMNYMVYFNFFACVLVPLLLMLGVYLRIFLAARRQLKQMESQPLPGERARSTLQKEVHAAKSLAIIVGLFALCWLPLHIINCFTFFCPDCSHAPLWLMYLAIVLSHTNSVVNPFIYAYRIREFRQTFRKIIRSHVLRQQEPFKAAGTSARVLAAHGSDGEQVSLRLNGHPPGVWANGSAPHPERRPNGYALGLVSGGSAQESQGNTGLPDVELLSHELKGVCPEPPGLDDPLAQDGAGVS
Description: as §1, §2, §3, §4, §5, §6, §7, §8, §9

[11] = molecular target: T9, μ (MOP) (h) (Homo sapiens, UniProt P35372); test: Cerep ExpresSProfile radioligand binding; details: 10 micromolar; agonist radioligand; read-out: % Inhibition of Control Specific Binding 1st
T9 construct: purchased Cerep (ExpresSProfile)
T9 sequence (P35372 whole entry): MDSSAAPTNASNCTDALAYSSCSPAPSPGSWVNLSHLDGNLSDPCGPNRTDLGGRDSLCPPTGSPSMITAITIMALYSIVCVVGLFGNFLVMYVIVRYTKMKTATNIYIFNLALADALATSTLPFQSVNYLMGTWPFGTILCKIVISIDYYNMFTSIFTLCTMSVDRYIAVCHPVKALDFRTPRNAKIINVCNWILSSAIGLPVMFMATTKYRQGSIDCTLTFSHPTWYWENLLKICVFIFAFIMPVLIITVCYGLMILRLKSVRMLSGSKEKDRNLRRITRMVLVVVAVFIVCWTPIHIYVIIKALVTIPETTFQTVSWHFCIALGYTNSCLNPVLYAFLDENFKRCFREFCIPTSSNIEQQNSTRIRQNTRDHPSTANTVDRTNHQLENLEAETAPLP
Description: as §1, §2, §3, §4, §5, §6, §7, §8, §9

[12] = tested on: heterozygous (Het) female Mecp2 mutant mice; test: Phenotype severity score; type: in vivo, mouse; details: for group average phenotype severity score: 5 mg/kg q72 hrs
Description: Group Pre‐Treatment Week 2 Week 4 Week 6 Week 8
Table S3. Group average bi-weekly phenotype severity scores after repeated dosing with PTX-BD4-3 (5 mg/kg, q72 hrs). Animals were assigned aggregate scores of phenotypic severity based on visual assessments of mobility, hind limb clasping, gait analysis, tremors, respiration and overall physical condition (scoring range = 0-12; Guy et al., 2007). The phenotype severity scores of Het animals […]
(also on this page, place not known: tr eatment Disease Models & Mechanisms: doi:10.1242/dmm.044685: Supplementary information Disease Models & Mechanisms • Supplementary information) […]

[13] = Body weight / tolerability on chronic intermittent dosing; type: in vivo; details: 8 weeks
Excerpt: In light of evidence that deficits in BDNF expression and TrkB signaling contribute to neurological dysfunction in mouse models of RTT ([Katz, 2014]), we next examined whether or not chronic treatment of Mecp2 mutant mice with PTX-BD4-3 would ameliorate disease phenotypes. For these studies, we used heterozygous (Het) female Mecp2 mutants, which, unlike male null mice, model the somatic mosaicism for normal and mutant MeCP2 that characterizes the human disease ([Katz et al., 2012]). Animals were treated once every 3 days (5 mg/kg, i.p.), beginning at 16 weeks of age, and neurological phenotypes were assessed at various time points up to 8 weeks of dosing. All tests were performed 24 h after the last treatment. Phenotypic assessments included whole-body plethysmography to quantify apneic breathing, a core feature of respiratory dysfunction in RTT, as well as a motor test battery.
Figure S2. Repeated dosing with PTX-BD4-3 (5 mg/kg, q72 hrs) had no
effect on body weight in either Wt or Het mice.
Initial Week 2 Week 4 Week 6 Week 8
Body weight (g) Wt Saline Wt BD4‐3
Disease Models & Mechanisms: doi:10.1242/dmm.044685: Supplementary information
Disease Models & Mechanisms • Supplementary information […]

[14] = read-out: % Inhibition of Control Specific Binding 1st
[15] = read-out: % Inhibition of Control Specific Binding Mean
[16] = read-out: % Inhibition of Control Specific Binding 2nd

COCCN(C)C(=O)c1cc(C(=O)N(C)CCOC)cc(C(=O)N(C)CCOC)c1 [PTX-BD4-3, benzene-1,3,5-tricarboxylic acid tris-[(2-methoxy-ethyl)-methyl-amide]]
inhibition at 10 µM [1]: 6.3%
inhibition at 10 µM [2, 14]: 4.8%
inhibition at 10 µM [2, 15]: 0%
inhibition at 10 µM [3, 14]: 9.5%
inhibition at 10 µM [3, 16]: 10.4%
inhibition at 10 µM [3, 15]: 9.9%
% Inhibition of Control Specific Binding 1st [4]: 16.5%
% Inhibition of Control Specific Binding 2nd [4]: 19.1%
% Inhibition of Control Specific Binding Mean [4]: 17.8%
% Inhibition of Control Specific Binding 1st [5]: 2.9%
inhibition at 10 µM [6, 14]: 10.7%
inhibition at 10 µM [6, 16]: 1.3%
inhibition at 10 µM [6, 15]: 6%
inhibition at 10 µM [7, 14]: 8.1%
inhibition at 10 µM [7, 16]: 0.3%
inhibition at 10 µM [7, 15]: 4.2%
inhibition at 10 µM [8]: 2.4%
inhibition at 10 µM [9, 14]: 5.8%
inhibition at 10 µM [9, 16]: 5.2%
inhibition at 10 µM [9, 15]: 5.5%
inhibition at 10 µM [10, 14]: 11.4%
inhibition at 10 µM [10, 16]: 30.1%
inhibition at 10 µM [10, 15]: 20.7%
inhibition at 10 µM [11]: 6.6%
change of global phenotypic severity scores over the time course ([12]; 5 mg/kg q72 h, pre-treatment vs 8 weeks): did not increase significantly
group average phenotype severity score ([12]; Week 2, scoring range 0-12, pre-treatment 2.73): 3.46
group average phenotype severity score ([12]; Week 4, scoring range 0-12): 3.66
group average phenotype severity score ([12]; Week 6, scoring range 0-12): 4.33
group average phenotype severity score ([12]; Week 8, scoring range 0-12): 3.66
tolerability of chronic intermittent dosing ([13]; 5 mg/kg i.p. q72 h): well tolerated
body weight ([13]; Het mice, 5 mg/kg q72 h, vs saline-treated Het littermates): unchanged
